Patent US20260184693A1, “INHIBITORS OF SOLUTE CARRIER FAMILY 6A MEMBER 19 (SLC6A19) AND METHODS OF USE THEREOF” (Maze Therapeutics, Inc., priority 2022, published 2026)

target: T1, human SLC6A19 (Homo sapiens, UniProt Q695T7); assay: Example B2: 13C6,15N-isoleucine uptake, RapidFire mass spectrometry, in CHO cells with doxycycline-inducible expression of human SLC6A19 and TMEM27; type: cell-based; conditions: read-out: SLC6A19_RapidFire Uptake Assay IC50
T1 construct: expressed in transfected cells
T1 sequence (Q695T7 1-634): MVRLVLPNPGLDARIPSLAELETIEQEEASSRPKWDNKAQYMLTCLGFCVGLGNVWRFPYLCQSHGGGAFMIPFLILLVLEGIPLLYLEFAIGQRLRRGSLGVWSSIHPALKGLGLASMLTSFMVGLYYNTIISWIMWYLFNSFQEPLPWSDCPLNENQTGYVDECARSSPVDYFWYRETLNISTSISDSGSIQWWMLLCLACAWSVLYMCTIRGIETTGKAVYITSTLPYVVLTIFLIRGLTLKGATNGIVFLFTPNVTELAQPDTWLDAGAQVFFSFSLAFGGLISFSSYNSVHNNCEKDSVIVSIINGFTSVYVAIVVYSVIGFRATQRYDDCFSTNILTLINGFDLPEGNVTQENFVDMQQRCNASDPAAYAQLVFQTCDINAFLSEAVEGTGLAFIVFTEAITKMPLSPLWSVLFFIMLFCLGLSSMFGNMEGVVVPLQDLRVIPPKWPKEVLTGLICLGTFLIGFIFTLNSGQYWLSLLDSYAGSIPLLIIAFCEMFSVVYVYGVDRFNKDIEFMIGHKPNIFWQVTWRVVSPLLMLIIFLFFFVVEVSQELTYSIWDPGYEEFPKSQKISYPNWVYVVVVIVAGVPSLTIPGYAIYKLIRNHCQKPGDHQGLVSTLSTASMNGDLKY
T1 sequence (Q9HBJ8 15-222 partner): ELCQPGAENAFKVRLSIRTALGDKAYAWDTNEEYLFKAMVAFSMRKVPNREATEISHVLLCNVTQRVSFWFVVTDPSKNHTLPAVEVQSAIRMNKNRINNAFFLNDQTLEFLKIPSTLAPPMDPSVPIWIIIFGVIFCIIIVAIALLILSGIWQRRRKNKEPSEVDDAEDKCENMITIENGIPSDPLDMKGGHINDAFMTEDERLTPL
Experimental: Assay ready vials of CHO cells with doxycycline inducible expression of human SLC6A19 and TMEM27 were thawed, plated in T175 flasks containing DMEM/F12 media, 10% FBS, 100 Penicillin-Streptomycin, 1× UltraGlutamate, 1 mM Sodium Pyruvate, Sodium Bicarbonate (7.5 mL of 7.5% solution in 500 mL media final), […] Blasticidin, 150 µg/mL Hygromycin B Gold, and 500 µg/mL G418, and incubated (humidified, 37° C. with […]) for 48 hours. Media was then removed, flasks were washed with 20 mL of DPBS, and 5 mL of TryμLE™ Express was added to each flask to initiate cell dissociation. After 5 minutes, 10 mL of cell culture media was added to each flask and mixed. The cell suspension was collected and centrifuged for 5 minutes at 200×g. The supernatant was removed, and the pellet was resuspended in 10 mL of cell culture media. Resuspended cells were counted using a Vi-Cell. 30 μL/well (20,000 cells/well) of cell suspension was added to Poly-D-Lysine 384-well black/clear plates. Plates were incubated (humidified, 37° C. with 5% CO2) for 24 hours. To induce expression of human SLC6A19 and TMEM27, 10 μL of assay culture media containing 4 μg/mL doxycycline was added to each well. Assay plates were then incubated (humidified, 37° C. with 5% CO2) overnight. After incubation, the media was removed, and wells were washed 3 times with 40 μL of warmed DPBS. […] All compounds were plated in a duplicate 10-point dilution series that consisted of 2-fold dilutions. The plates were incubated (humidified, 37° C. with 5% CO2) with compound for 20 minutes. Afterwards, 20 μL/well of 2 mM 13C6,15N-1-isoleucine was added to each well and plates were incubated again (humidified, 37° C. with 5% CO2) for another 20 minutes. Assay buffer was then removed, and plates were washed. 70 μL/well of stop solution (75% acetonitrile, 25% HPLC grade water, 250 nM 1-leucine-1-13 C (RapidFire standard)) was added to each well. The plates were sealed and then placed in a −20° C. freezer for 20 minutes. The plates were thawed at room temperature for 20 minutes and then centrifuge for 20 minutes at 3000 rpm. Using an ABSciex API4000 mass spectrometer, processed samples were loaded onto the graphitic carbon SPE-column. The time for aspiration, load/wash, elution and re-equilibration time was 600, 1500, 3000 and 500 milliseconds, respectively. Peak areas were calculated using RapidFire Integrator software.

Row | Compound | IC50
1 | CN(C(=O)NCc1cc2cc(Cl)ccc2[nH]1)[C@@H]1CCCN(C(=O)C2COC2)C1 [Compound 1, (R)-3-((5-chloro-1H-indol-2-yl)methyl)-1-methyl-1-(1-(oxetane-3-carbonyl)piperidin-3-yl)urea] | 252 nM
2 | CN(C(=O)NCc1cc2cc(Cl)ccc2[nH]1)[C@@H]1CCCN(C(=O)CN2CCOC2=O)C1 [Compound 2, (R)-3-((5-chloro-1H-indol-2-yl)methyl)-1-methyl-1-(1-(2-(2-oxooxazolidin-3-yl)acetyl)piperidin-3-yl)urea] | 3520 nM
3 | CN(C(=O)NCc1cc2cc(Cl)ccc2[nH]1)[C@@H]1CCCN(C(=O)CC#N)C1 [Compound 3, (R)-3-((5-chloro-1H-indol-2-yl)methyl)-1-(1-(2-cyanoacetyl)piperidin-3-yl)-1-methylurea] | 359 nM
4 | CN(C(=O)NCc1cc2cc(Cl)ccc2[nH]1)[C@@H]1CCCN(C(=O)CO)C1 [Compound 4, (R)-3-((5-chloro-1H-indol-2-yl)methyl)-1-(1-(2-hydroxyacetyl)piperidin-3-yl)-1-methylurea] | 620 nM
5 | CN(C(=O)NCc1cc2cc(Cl)ccc2[nH]1)[C@@H]1CCCN(C(=O)c2ccon2)C1 [Compound 5, (R)-3-((5-chloro-1H-indol-2-yl)methyl)-1-(1-(isoxazole-3-carbonyl)piperidin-3-yl)-1-methylurea] | 578 nM
6 | CN(C(=O)NCc1cc2cc(Cl)ccc2[nH]1)[C@@H]1CCCN(C(=O)c2ccno2)C1 [Compound 6, (R)-3-((5-chloro-1H-indol-2-yl)methyl)-1-(1-(isoxazole-5-carbonyl)piperidin-3-yl)-1-methylurea] | 198 nM
7 | CN(C(=O)NCc1cc2cc(Cl)ccc2[nH]1)[C@@H]1CCCN(C(=O)c2cocn2)C1 [Compound 7, (R)-3-((5-chloro-1H-indol-2-yl)methyl)-1-methyl-1-(1-(oxazole-4-carbonyl)piperidin-3-yl)urea] | 685 nM
8 | CN(C(=O)NCc1cc2cc(Cl)ccc2[nH]1)[C@@H]1CCCN(C(=O)CC(F)(F)F)C1 [Compound 8, (R)-3-((5-chloro-1H-indol-2-yl)methyl)-1-methyl-1-(1-(3,3,3-trifluoropropanoyl)piperidin-3-yl)urea] | 491 nM
9 | CN(C(=O)NCc1cc2cc(Cl)ccc2[nH]1)[C@@H]1CCCN(C(=O)c2nccs2)C1 [Compound 9, (R)-3-((5-chloro-1H-indol-2-yl)methyl)-1-methyl-1-(1-(thiazole-2-carbonyl)piperidin-3-yl)urea] | 5370 nM
10 | CCC(=O)N1CCC[C@@H](N(C)C(=O)NCc2cc3cc(Cl)ccc3[nH]2)C1 [Compound 10, (R)-3-((5-chloro-1H-indol-2-yl)methyl)-1-methyl-1-(1-propionylpiperidin-3-yl)urea] | 125 nM
11 | CN(C(=O)NCc1cc2cc(Cl)ccc2[nH]1)[C@@H]1CCCN(C(=O)c2cn[nH]c2)C1 [Compound 11, (R)-1-(1-(1H-pyrazole-4-carbonyl)piperidin-3-yl)-3-((5-chloro-1H-indol-2-yl)methyl)-1-methylurea] | 743 nM
12 | CC(O)C(=O)N1CCC[C@@H](N(C)C(=O)NCc2cc3cc(Cl)ccc3[nH]2)C1 (stereo partly drawn) [Compound 12, 3-((5-chloro-1H-indol-2-yl)methyl)-1-((3R)-1-(2-hydroxypropanoyl)piperidin-3-yl)-1-methylurea] | 354 nM
13 | CN(C(=O)NCc1cc2cc(Cl)ccc2[nH]1)[C@@H]1CCCN(C(=O)c2c[nH]cn2)C1 [Compound 13, (R)-1-(1-(1H-imidazole-4-carbonyl)piperidin-3-yl)-3-((5-chloro-1H-indol-2-yl)methyl)-1-methylurea] | 1610 nM
14 | CN(C(=O)NCc1cc2cc(Cl)ccc2[nH]1)[C@@H]1CCCN(C(=O)[C@H]2C[C@@H]2F)C1 [Compound 14, 3-((5-chloro-1H-indol-2-yl)methyl)-1-((R)-1-((1R,2S)-2-fluorocyclopropane-1-carbonyl)piperidin-3-yl)-1-methylurea] | 467 nM
15 | COCC(=O)N1CCC[C@@H](N(C)C(=O)NCc2cc3cc(Cl)ccc3[nH]2)C1 [Compound 15, (R)-3-((5-chloro-1H-indol-2-yl)methyl)-1-(1-(2-methoxyacetyl)piperidin-3-yl)-1-methylurea] | 539 nM
16 | CN(C(=O)NCc1cc2cc(Cl)ccc2[nH]1)[C@@H]1CCCN(C(=O)C2(F)CC2)C1 [Compound 16, (R)-3-((5-chloro-1H-indol-2-yl)methyl)-1-(1-(1-fluorocyclopropane-1-carbonyl)piperidin-3-yl)-1-methylurea] | > 4290 nM
17 | CN(C(=O)NCc1cc2cc(Cl)ccc2[nH]1)[C@@H]1CCCN(C(=O)C2CC2)C1 [Compound 17, (R)-3-((5-chloro-1H-indol-2-yl)methyl)-1-(1-(cyclopropanecarbonyl)piperidin-3-yl)-1-methylurea] | 151 nM
18 | CN(C(=O)NCc1cc2cc(Cl)ccc2[nH]1)[C@@H]1CCCN(C(=O)c2ncc[nH]2)C1 [Compound 18, (R)-1-(1-(1H-imidazole-2-carbonyl)piperidin-3-yl)-3-((5-chloro-1H-indol-2-yl)methyl)-1-methylurea] | 2250 nM
19 | CN(C(=O)NCc1cc2cc(Cl)ccc2[nH]1)[C@@H]1CCCN(C(=O)C2CC2(F)F)C1 (stereo partly drawn) [Compound 19, 3-((5-chloro-1H-indol-2-yl)methyl)-1-((3R)-1-(2,2-difluorocyclopropane-1-carbonyl)piperidin-3-yl)-1-methylurea] | 484 nM
20 | CN(C(=O)NCc1cc2cc(Cl)ccc2[nH]1)[C@@H]1CCCN(C(=O)c2cncnc2)C1 [Compound 20, (R)-3-((5-chloro-1H-indol-2-yl)methyl)-1-methyl-1-(1-(pyrimidine-5-carbonyl)piperidin-3-yl)urea] | 8960 nM
21 | CN(C(=O)NCc1cc2cc(Cl)ccc2[nH]1)[C@@H]1CCCN(C(=O)c2ncccn2)C1 [Compound 22, (R)-3-((5-chloro-1H-indol-2-yl)methyl)-1-methyl-1-(1-(pyrimidine-2-carbonyl)piperidin-3-yl)urea] | 4370 nM
22 | CN(C(=O)NCc1cc2cc(Cl)ccc2[nH]1)[C@@H]1CCCN(C(=O)c2ccnnc2)C1 [Compound 23, (R)-3-((5-chloro-1H-indol-2-yl)methyl)-1-methyl-1-(1-(pyridazine-4-carbonyl)piperidin-3-yl)urea] | 5840 nM
23 | CN(C(=O)NCc1cc2cc(Cl)ccc2[nH]1)[C@@H]1CCCN(C(=O)c2ncc(F)cn2)C1 [Compound 24, (R)-3-((5-chloro-1H-indol-2-yl)methyl)-1-(1-(5-fluoropyrimidine-2-carbonyl)piperidin-3-yl)-1-methylurea] | 4200 nM
24 | Cc1n[nH]nc1C(=O)N1CCC[C@@H](N(C)C(=O)NCc2cc3cc(Cl)ccc3[nH]2)C1 [Compound 25, (R)-3-((5-chloro-1H-indol-2-yl)methyl)-1-methyl-1-(1-(5-methyl-2H-1,2,3-triazole-4-carbonyl)piperidin-3-yl)urea] | 11600 nM
25 | CN(C(=O)NCc1cc2cc(Cl)ccc2[nH]1)[C@@H]1CCCN(C(=O)c2cnnn2C)C1 [Compound 26, (R)-3-((5-chloro-1H-indol-2-yl)methyl)-1-methyl-1-(1-(1-methyl-1H-1,2,3-triazole-5-carbonyl)piperidin-3-yl)urea] | 5260 nM
